Measured values from patent US9637490B2, “Antifungal 5,6-dihydro-4-[(difluoroethyl)phenyl]-4H-pyrrolo[1,2-α][1,4]benzodiazepine and 4-(difluoroethyl)phenyl-6H-pyrrolo[1,2-α][1,4]benzodiazepine derivatives” (Janssen Pharmaceutica NV, priority 2010, dated 2017).

Columns and labels:
[1] = test system: Scedosporium apiospermum IHEM3817; assay: Antifungal activity in vitro (resazurin susceptibility screen), Inf. H; format: cell-based; settings: Scedosporium apiospermum, IHEM3817, Scedosporium apiospermum IHEM3817; 37 °C, 48 hours, resa time 17 hours
How it was run: (§1)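 RPMI-1640/2% glucose/MOPS pH 7.0; 10^3 cfu per well; top conc 64 μM, 2- or 4-fold dilutions from DMSO. Yeasts 24 h 37° C, dermatophytes ≥1 wk 27° C. Resazurin 0.005% added, fluorescence ex 550/em 590 nm vs untreated growth and medium-only controls.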

[2] = In vivo pharmacokinetic determinations (bioavailability) in guinea pigs; settings: guinea pig, po
Description: (§2) Three animals (mean weight 20±7 g for mice and 275±20 for Guinea pigs) were used per dose route, time point and formulation.
(§3) For the oral (PO) solution formulation, compound was dissolved in a 20% hydroxypropyl-β-cyclodextrin (HP-β-CD) solution at a final concentration of 1 mg/ml. HCl was added to facilitate dissolution. After dissolution, the pH was brought up to 3.7 with NaOH. Mannitol was added to make the solution isotonic. For the PO suspension formulation, compound was suspended in 0.5% methocel at a final concentration of 1 mg/ml. The formulations were stored at room temperature, protected from light and analysed quantitatively with LC-MS/MS on the day of preparation. Stability of the formulations was checked on the day of dosing.
(§4) The animals were dosed orally by gastric intubation at 10 ml/kg to obtain a final dose 10 mg/kg. Three dosed animals were sacrificed for blood sampling at 15 and 30 min, 1, 2, 3, 4, 6, 8 and 24 h after PO dose administration as a solution and at 30 min, 1, 2, 4, 6, 8 and 24 h after PO dose administration as a suspension.
(§5) Blood was collected by multiple sampling from a tail vein into Multivette® 600 K3E tubes (Sarstedt). Samples were placed immediately at approximately 4° C. and plasma was obtained following centrifugation at 4° C. for 10 minutes at approximately 1900×g. All samples were shielded from daylight and stored at ≦−18° C. prior to analysis.
(§6) Plasma samples were analysed for dosed compound using a qualified research LC-MS/MS method. The key analytical performance (linearity, upper and lower limit of quantification, accuracy and precision) of the method was reported together with the plasma concentrations.
(§7) A limited pharmacokinetic analysis was performed using WinNonlin™ Professional (Version 5.2.1). A non-compartmental analysis using the lin/log trapezoidal rule with lin/log interpolation was used for all data.

[3] = test system: Aspergillus fumigatus B42928; assay: Antifungal activity in vitro (resazurin susceptibility screen), Inf. E; format: cell-based; settings: Aspergillus fumigatus, B42928, Aspergillus fumigatus B42928; 27 °C, 48 hours, resa time 17 hours
How it was run: as §1

[4] = test system: Trichophyton mentagrophytes B70554; assay: Antifungal activity in vitro (resazurin susceptibility screen), Inf. G; format: cell-based; settings: Trichophyton mentagrophytes, B70554, Trichophyton mentagrophytes B70554; 27 °C, 7 days, resa time 24 hours
How it was run: as §1

Microsporum canis B68128 = assay: Antifungal activity in vitro (resazurin susceptibility screen), Inf. B; format: cell-based; settings: Microsporum canis, B68128, Microsporum canis B68128; 27 °C, 9 days, resa time 24 hours
How it was run: as §1

Rhizopus oryzae IHEM5223 = assay: Antifungal activity in vitro (resazurin susceptibility screen), Inf. J; format: cell-based; settings: Rhizopus arrhizus, 37 °C, 24 hours, resa time 6 hours
How it was run: as §1

in vivo = assay: in vivo; design: species or system mice; settings: mouse, po, 10 mg/kg
Description: as §2, §3, §4, §5, §6, §7

[5] = test system: Candida parapsilosis B66126; assay: Antifungal activity in vitro (resazurin susceptibility screen), Inf. D; format: cell-based; settings: Lodderomyces parapsilosis, B66126, Candida parapsilosis B66126; 37 °C, 24 hours, resa time 4 hours
How it was run: as §1

[6] = test system: Rhizomucor miehei IHEM13391; assay: Antifungal activity in vitro (resazurin susceptibility screen), Inf. K; format: cell-based; settings: Rhizomucor miehei, IHEM13391, Rhizomucor miehei IHEM13391; 37 °C, 48 hours, resa time 17 hours
How it was run: as §1

[7] = test system: Sporothrix schenkii B62482; assay: Antifungal activity in vitro (resazurin susceptibility screen), Inf. A; format: cell-based; settings: Sporothrix, B62482, Sporothrix schenkii B62482; 27 °C, 4 days, resa time 24 hours
How it was run: as §1

[8] = test system: Trichophyton rubrum B68183; assay: Antifungal activity in vitro (resazurin susceptibility screen), Inf. C; format: cell-based; settings: Trichophyton rubrum, B68183, Trichophyton rubrum B68183; 27 °C, 7 days, resa time 24 hours
How it was run: as §1

[9] = test system: Cryptococcus neoformans B66663; assay: Antifungal activity in vitro (resazurin susceptibility screen), Inf. F; format: cell-based; settings: Cryptococcus neoformans, B66663, Cryptococcus neoformans B66663; 37 °C, 24 hours, resa time 4 hours
How it was run: as §1

[10] = test system: Mucor circinelloides IHEM21105; assay: Antifungal activity in vitro (resazurin susceptibility screen), Inf. L; format: cell-based; settings: 27 °C, 48 hours, resa time 17 hours
How it was run: as §1

IC50 [1]: > 64.6 µM | bioavailability [2]: 35% | IC50 [3]: 2.24 µM | IC50 [4]: 0.891 µM | melting point: 215.2 to 217.6 °C | IC50 (Microsporum canis B68128): 0.479 µM | IC50 (Rhizopus oryzae IHEM5223): > 64.6 µM | bioavailability (in vivo): 20% | IC50 [5]: 3.09 µM | IC50 [6]: > 64.6 µM | IC50 [7]: 12 µM | IC50 [8]: 0.234 µM | IC50 [9]: 21.4 µM | IC50 [10]: > 64.6 µM
Compound: CC(F)(F)c1ccc(C2=NCc3c(Cl)cccc3-n3cccc32)cc1 [Compound 4, 7-chloro-4-[4-(1,1-difluoroethyl)phenyl]-6H-pyrrolo[1,2-a][1,4]benzodiazepine]
